Here are results for four compounds from patent US20230320995A1, “IONIZABLE CATIONIC LIPIDS AND LIPID NANOPARTICLES” (CAPSTAN THERAPEUTICS, INC., priority 2022, published 2023).

A short description of series [1]: apparent pKa of ionizable lipid in lipid nanoparticle, TNS assay. The format is physicochemical. To be noted: for ΔpKa: difference of calculated and measured pKa; for pKa: TNS assay. The protocol:
c Log D and c-pKa were calculated as noted above. The measured pKa of a lipid was determined as formulated in a lipid nanoparticle using the TNS assay as described in the following Example.
The apparent pKa of ionizable lipid in the lipid nanoparticle was determined using 6-(p-toluidino)-2-naphthalenesulfonic acid sodium salt (TNS salt, Toronto Research Chemicals, Toronto, ON, Canada). Lipid nanoparticles were diluted in 1×Dulbecco's PBS to a concentration of 1 mM total lipids. TNS salt was prepared as a 1 mg/mL stock solution in DMSO and then further diluted using distilled water to a working solution of 60 μg/mL ([…]). Diluted lipid nanoparticle samples were further diluted to 90 μM total lipids in 165 μL of buffered solution containing 10 mM HEPES, 10 mM MES, 10 mM ammonium acetate, 130 mM NaCl, and final TNS concentration of 1.33 μg/mL (4 μM) with the pH ranging from 3.5 to 12.2. Following pipette mixing and incubation at room temperature in the dark for 15 min, fluorescence intensity was measured at room temperature in a BioTek Synergy H1 plate reader using excitation and emission wavelengths of 321 and 445 nm, respectively. The fluorescence signal was blank subtracted and plotted as a function of the pH, then analyzed using a nonlinear (Boltzmann) regression analysis with the apparent pKa determined as the pH giving rise to half maximal fluorescence intensity as calculated by the Henderson-Hasselbalch equation.

Series [2] is described as follows: ex vivo stability in mouse plasma. Type of series: in vitro ADME. As to conditions: CD-1 mouse plasma, 37° C., 1 μM lipid. The method, then: To determine the stability of the disclosed lipids in mouse plasma lipid stock solution was prepared by dissolution of the lipid in isopropanol at the concentration of 5 mg/mL. A requisite volume of the lipid-isopropanol solution was then diluted to 100 μM concentration at a total volume of 10.0 mL with 50:50 (v/v) ethanol/water. Ten microliters of this 100 μM solution was spiked into 10.0 mL of mouse plasma (BioIVT, Lot MSE394920, CD-1 mouse, anticoagulant: sodium heparin, not filtered) that was prewarmed to 37° C. and stirred at 50 rpm with a magnetic stir bar. The starting concentration of lipids in plasma was thus 1 μM. Aliquots (50 μL) were taken after 0, 15, 30, 45, 60, and 120 minutes, transferred to microcentrifuge tubes and quenched with three volumes (150 μL) of ice cold acetonitrile/methanol (4:1). Positive control incubations utilized the same plasma, with Benfluorex (1 μM) as the substrate with Labetalol (1.0 μgl) as the in situ disappearance. The quenched solutions were vortexed, centrifuged for 5 minutes at 13,000 rpm, and supernatant (100 μL) transferred to a 96-well plate and diluted with water (200 μL, 0.1% FA). After filtration through a 0.45 μm 96-well filtering plate, the filtrates were analyzed by LC-MS (Waters AQUITY I-class UPLC system, ThermoScientific Vanquish UPLC system consisting of a binary pump, autosampler, and column compartment, Waters Xevo G2-XS QT of mass spectrometer; Phenomenex F5, 1.7 μm, 2.1×50 mm column). Mobile phase A was 0.1% formic acid in water, and mobile phase B was 0.1% formic acid in acetonitrile. The flow rate was 0.6 mL/min. Elution gradient was as follows: time, 0.5 min: 20% B; 0.5-2 min: 20-100% B; 2-4.8 min: 100% B; 4.8-5.45 min: 100-20% B. Mass spectrometry was in positive scanning mode from 600-1100 m/z. The peak of the molecular ion of the lipids was integrated in extracted ion chromatography (XIC) using Xcalibur software (Thermo Fisher). The relative peak area compared to T=0, after normalization by the peak area of the internal standard, was used as the percentage of the lipid remaining at each time point. T1/2 values were calculated using the first-order decay model.

Series [3] can be described thus: physical-chemical properties of LNP encapsulating mCherry mRNA. To be noted: for Encapapsulation Efficiency / PDI (polydispersity index): LNP 50:10:38.5:1.5, mCherry mRNA; for Encapapsulation Efficiency / Hydrodynamic diameter: N/P 6; for PDI (polydispersity index) / Hydrodynamic diameter: DLS; for Hydrodynamic diameter: LNP: ionizable lipid/DSPC/cholesterol/DMG-PEG2000 50:10:38.5:1.5, mCherry mRNA, pH 7.4 Tris, 25° C. The format is physicochemical. The text has this:
The mRNA was encapsulated in LNP using a self-assembly process in which an aqueous solution of mRNA at pH=3.5 is rapidly mixed with a solution of lipids dissolved in ethanol, then followed by stepwise phosphate and Tris buffer dilution and tangential flow filtration (TFF) purification. LNP composition in this study was: ionizable cationic lipid/distearoylphosphatidylcholine/cholesterol/DMG-PEG2000 (50:10:38.5:1.5 mol/mol) and were encapsulated at an N/P ratio (the ratio of positively-chargeable lipid amine (N=nitrogen) groups to negatively-charged nucleic acid phosphate (P) groups) at 6. LNPs were frozen at −80° C. […] The diameter of the nanoparticles was measured by dynamic light scattering using a Zetasizer Nano ZS (Malvern Instruments Ltd., Malvern, UK) instrument. Size measurement was carried out in pH 7.4 Tris buffer at 25° C. in relevant disposable capillary cells. A non-invasive back scatter system (NIBS) with a scattering angle of 173° was used for size measurements.

Series [4] is described as follows: physical-chemical properties of CD5-targeted tLNP encapsulating mCherry mRNA. The format is physicochemical. As to conditions: for Hydrodynamic diameter: anti-CD5 tLNP: ionizable lipid/DSPC/cholesterol/DMG-PEG 2000/DSPE-PEG2000-Maleimide 50:10:38.5:1.4:0.1; for Hydrodynamic diameter / PDI (polydispersity index): DLS; for PDI (polydispersity index) / Encapsulation Efficiency: anti-CD5 tLNP; for Encapsulation Efficiency: RiboGreen assay. The text has this: CleanCap® mCherry 5-methoxyuridine (5moU) mRNA (L-7203) was purchased from TriLink. mRNA was encapsulated in LNP using a self-assembly process in which an aqueous solution of mRNA at pH=3.5 is rapidly mixed with a solution of lipids dissolved in ethanol, then followed by stepwise phosphate and Tris buffer dilution and TFF purification. LNP composition in this study was: ionizable cationic lipid/distearoylphosphatidylcholine/cholesterol/DMG-PEG 2000/distearoylphosphatidyl ethanolamine(DSPE)-PEG2000-Maleimide (50:10:38.5:1.4:0.1 mol/mol) and were encapsulated at an N/P ratio (the ratio of positively-chargeable […] amine (N=nitrogen) groups to negatively-charged nucleic acid phosphate (P) groups) at 6. The hydrodynamic diameter of the nanoparticles was measured by dynamic light scattering using a Zetasizer Nano ZS (Malvern Instruments Ltd., Malvern, UK) instrument.
Next, an anti-CD5 mAb was conjugated to the above LNP to generate tLNP. Purified rat anti-mouse CD5 antibody, clone 53-7.3 (BioLegend), was coupled to LNP via N-succinimidyl S-acetylthioacetate (SATA)-maleimide conjugation chemistry. Briefly, LNPs with DSPE-PEG(2000)-maleimide incorporated were formulated and stored at 4° C. on the day of conjugation. The antibody was modified with SATA (Sigma-Aldrich) to introduce sulfhydryl groups at accessible lysine residues allowing conjugation to maleimide. SATA was deprotected using 0.5 M hydroxylamine followed by removal of the unreacted components by G-25 Sephadex Quick Spin Protein columns (Roche Applied Science, Indianapolis, IN). The reactive sulfhydryl group on the antibody was then conjugated to maleimide moieties on the LNPs using thioether conjugation chemistry. Purification was performed using Sepharose CL-4B gel filtration columns (Sigma-Aldrich). tLNPs (LNPs conjugated with a targeting antibody) were frozen at −80° C. Others have conjugated antibody to free functionalized PEG-lipid and then incorporated the conjugated lipid into pre-formed LNP.
mRNA content was determined using a Quant-iT™ RiboGreen RNA assay kit (Invitrogen™). Encapsulation efficiency was calculated by determining the unencapsulated mRNA content by measuring the fluorescence intensity (Fi) upon the addition of RiboGreen reagent to the LNP and comparing this value to the total fluorescence intensity (Ft) of the RNA content that is obtained upon lysis of the LNPs by 1% Triton X-100, where % encapsulation=(Ft−Fi)/Ft x 100).
The particle size (hydrodynamic diameter) and polydispersity index of the targeted lipid nanoparticles were determined using dynamic light scattering (DLS) on a Malvern Zetasizer Nano ZS (Malvern Instruments, Worcestershire, UK). Size measurement was carried out in pH 7.4 Tris buffer at 25° C. in relevant disposable capillary cells. A non-invasive back scatter system (NIBS) with a scattering angle of 173° was used for size measurements.

[5] abbreviates: ionizable lipid in tLNP, read-out: Measured pKa.
[6] abbreviates: measured, lipid formulated in a lipid nanoparticle, read-out: pKa.

Molecules are shown by their SMILES. Like-named read-outs stand apart in the source and are kept apart here.

Take `CCCCCCCCC(=O)OCC(COC(=O)CCCCCCCC)CC(=O)OCCN(CCOC(=O)CC(COC(=O)CCCCCCCC)COC(=O)CCCCCCCC)C(=O)N(C)CCCN(C)C` [Compound A-15]: the ΔpKa in series [1] was 1.18. Moreover, in series [1] (setting [5]), the pKa is 8.37. Also, the pKa in series [1] (setting [6]) came to 8.37. Also, the “ex vivo Mouse Plasm Stability % Remaining at 2 Hours” value in series [2] came out at 69%. In addition, in series [3], the “Encapapsulation Efficiency” value was 99%, the “PDI (polydispersity index)” value is reported as 0.07 and the Hydrodynamic diameter turned out to be 97 nm. Besides, in series [4], the “Hydrodynamic diameter” value is reported as 136 nm, the “PDI (polydispersity index)” value amounted to 0.15 and the “Encapsulation Efficiency” value is on record as 98%.

Turning to `CCCCCCCCC(=O)OCC(COC(=O)CCCCCCCC)CC(=O)OCCN(CCOC(=O)CC(COC(=O)CCCCCCCC)COC(=O)CCCCCCCC)C(=O)NCCN(C)C` [Compound A-13], the ΔpKa in series [1] is recorded as 0.80. Further, the pKa in series [1] (setting [5]) was 7.51. Moreover, the pKa in series [1] (setting [6]) was found to be 7.51. The “ex vivo Mouse Plasm Stability % Remaining at 2 Hours” value in series [2] came out at 64%. In series [3], the “Encapapsulation Efficiency” value is on record as 99% and the Hydrodynamic diameter is 101 nm. In series [4], the “Hydrodynamic diameter” value turned out to be 100 nm, the “PDI (polydispersity index)” value was determined as 0.10 and the “Encapsulation Efficiency” value worked out at 99%.

Take `CCCCCCCCC(=O)OCC(COC(=O)CCCCCCCC)CC(=O)OCCN(CCOC(=O)CC(COC(=O)CCCCCCCC)COC(=O)CCCCCCCC)C(=O)OCCCN(C)C` [Compound A-12]: in series [1], the ΔpKa was 1.91. For the same compound, the pKa in series [1] (setting [5]) was 7.35. Further, the pKa in series [1] (setting [6]) stood at 7.35. For the same compound, the “ex vivo Mouse Plasm Stability % Remaining at 2 Hours” value in series [2] is listed as 85%. Besides, in series [3], the “Encapapsulation Efficiency” value is on record as 91%, the “PDI (polydispersity index)” value stood at 0.04 and the Hydrodynamic diameter amounted to 104 nm. In series [4], the “Hydrodynamic diameter” value was 98 nm, the “PDI (polydispersity index)” value is given as 0.07 and the “Encapsulation Efficiency” value is 92%.

`CCCCCCCCC(=O)OCC(COC(=O)CCCCCCCC)CC(=O)OCCN(CCOC(=O)CC(COC(=O)CCCCCCCC)COC(=O)CCCCCCCC)C(=O)N(C)CCN(C)C` [Compound A-14]: the ΔpKa in series [1] is listed as 0.91. Besides, the pKa in series [1] (setting [5]) amounted to 7.46. The pKa in series [1] (setting [6]) was 7.46. Also, in series [2], the “ex vivo Mouse Plasm Stability % Remaining at 2 Hours” value is given as 61%. In addition, in series [3], the “Encapapsulation Efficiency” value is 91%, the “PDI (polydispersity index)” value amounted to 0.03 and the Hydrodynamic diameter stood at 127 nm. Moreover, in series [4], the “Hydrodynamic diameter” value was determined as 100 nm, the “PDI (polydispersity index)” value is listed as 0.05 and the “Encapsulation Efficiency” value is 95%.
